Measured values from patent US20200060276A1, “THIAZOLE COMPOUND AND HERBICIDE” (OAT Agrio Co., Ltd., priority 2017, published 2020).

Key:
Assay type in all cases: in vivo
[1] = system: Echinochloa crus-galli (L.) P. Beauv. var. formosensis Ohwi; assay: Test for Herbicidal Effect in Flooding Treatment (#1), ECHDG; settings: for ECHDG #1 herbicidal effect (growth inhibition grade): flooding treatment at seeding, dose 2 kg/ha, visual observation on day 21
Protocol: (§1) (#1) Test for Herbicidal Effect in Flooding Treatment: Styrol cups each having an opening diameter of 8 cm (about 52 cm^2) were respectively filled with soil (45 ml) which had been passed through a sieve (2 mm). Water (about 115 ml) was mixed with the soil such that the soil was flooded. After the soil stood still for 24 hours, Monochoria vaginalis, Echinochloa crus-galli (L.) P. Beauv. var. formosensis Ohwi, Cyperus difformis (umbrella sedge), and Scirpus juncoides were seeded. Each of the compounds of the present invention was dissolved in acetone, and the obtained product was then diluted with water containing Tween 80®. Each of the resultant chemical solutions was dropped on the entire surface of an associated one of treatment sections, so that each section was treated with 1 ml of the respective chemical solution (a dose of 2 kg/ha). After the treatment, the plants were grown in a glasshouse. On day 21, a survey was conducted on the herbicidal activity by visual observation, and evaluation was made according to the following criteria. 0: Growth inhibition effect is less than 10%. 1: Growth inhibition effect is equal to or greater than 10%, and less than 30%. 2; Growth inhibition effect is equal to or greater than 30%, and less than 50%. 3: Growth inhibition effect equal to or greater than 50%, and less than 70%. 4: Growth inhibition effect is equal to or greater than 70%, and less than 90%. 5: Growth inhibition effect is equal to or greater than 90%, or complete withering is achieved. ECHDG=Echinochloa crus-galli (L.) P. Beauv. var. formosensis Ohwi, MONVA=Monochoria vaginalis, SCIJU=Scirpus juncoides, CYMIC=Cyperus microiria.

Scirpus juncoides = assay: Test for Herbicidal Effect in Flooding Treatment (#1), SCIJU; settings: for SCIJU #1 herbicidal effect (growth inhibition grade): flooding treatment at seeding, dose 2 kg/ha, visual observation on day 21
Protocol: as §1

[2] = system: Echinochloa crus-galli (L.) P. Beauv. var. formosensis Ohwi; assay: Test for Herbicidal Effect in Flooding Treatment (#2), ECHDG at 2-2.5 leaf stage; settings: for ECHDG (2-2.5L) #2 herbicidal effect (growth inhibition grade): flooding treatment at 2-2.5 leaf stage, dose 0.2 kg/ha, visual observation on day 21
Protocol: (#2) Test for Herbicidal Effect in Flooding Treatment: Styrol cups each having an opening diameter of 13 cm (about 130 cm^2) were respectively filled with muddy soil (500 ml). Water (about 300 ml) was mixed with the soil such that the soil was flooded. After the soil stood still for 24 hours, Echinochloa crus-galli (L.) P. Beauv. var. formosensis Ohwi was seeded. When the Echinochloa crus-galli (L.) P. Beauv. var. formosensis Ohwi grew to reach 2-2.5 leaf stage, chemical solutions were dropped on the entire surface of treatment sections, so that each section is treated with 1 ml of the respective chemical solution (a dose of 0.2 kg/ha). Each of the chemical solutions was prepared by dissolving associated one of the compounds of the present invention in acetone, followed by dilution with water containing Tween 80 g. After the treatment, the plants were grown in a glasshouse. On day 21, a survey was conducted on the herbicidal activity by visual observation, and evaluation was made according to the following criteria. 0: Growth inhibition effect is less than 10%. 1: Growth inhibition effect is equal to or greater than 10%, and less than 30%. 2; Growth inhibition effect is equal to or greater than 30%, and less than 50%. 3: Growth inhibition effect equal to or greater than 50%, and less than 70%. 4: Growth inhibition effect is equal to or greater than 70%, and less than 90%. 5: Growth inhibition effect is equal to or greater than 90%, or complete withering is achieved. ECHDG=Echinochloa crus-galli (L.) P. Beauv. var. formosensis Ohwi, MONVA=Monochoria vaginalis, SCIJU=Scirpus juncoides, CYMIC=Cyperus microiria. The herbicidal activity of the following comparative compounds A and B (the compounds disclosed Japanese Unexamined Patent Publication No. 2003-096059) were evaluated in a manner pursuant to Test Example 1. (#2).

SMILES | ECHDG #1 herbicidal effect (growth inhibition rating 0-5) ([1]; flooding treatment #1) | SCIJU #1 herbicidal effect (growth inhibition rating 0-5) (Scirpus juncoides; flooding treatment #1) | ECHDG (2-2.5L) #2 herbicidal effect (growth inhibition rating 0-5) ([2]; flooding treatment #2, 2-2.5 leaf stage) | ECHDG #1 herbicidal effect (growth inhibition grade) [1] | SCIJU #1 herbicidal effect (growth inhibition grade) (Scirpus juncoides) | ECHDG (2-2.5L) #2 herbicidal effect (growth inhibition grade) [2]
[O-][S+](Cc1c(OCC(F)(F)F)cccc1C(F)(F)F)c1ncc(Cl)s1 (stereo not drawn) [Compound 1B-11] | 5 (Growth inhibition effect is equal to or greater than 90%, or complete withering is achieved) | 5 (Growth inhibition effect is equal to or greater than 90%, or complete withering is achieved) | 5 (Growth inhibition effect is equal to or greater than 90%, or complete withering is achieved) |  |  | 
O=S(=O)(Cc1c(OCC(F)(F)F)cccc1C(F)(F)F)c1ncc(Cl)s1 [Compound 1C-56] |  |  |  | 5 (Growth inhibition effect is equal to or greater than 90%, or complete withering is achieved) | 5 (Growth inhibition effect is equal to or greater than 90%, or complete withering is achieved) | 5 (Growth inhibition effect is equal to or greater than 90%, or complete withering is achieved)
O=S(=O)(Cc1c(Cl)cc(OC(F)F)cc1Cl)c1ncc(Cl)s1 [Compound 1C-175] |  |  |  | 5 (Growth inhibition effect is equal to or greater than 90%, or complete withering is achieved) | 5 (Growth inhibition effect is equal to or greater than 90%, or complete withering is achieved) | 5 (Growth inhibition effect is equal to or greater than 90%, or complete withering is achieved)
O=S(=O)(Cc1c(Cl)ccc(OC(F)F)c1F)c1ncc(Cl)s1 [Compound 1C-180] |  |  |  | 5 (Growth inhibition effect is equal to or greater than 90%, or complete withering is achieved) | 5 (Growth inhibition effect is equal to or greater than 90%, or complete withering is achieved) | 5 (Growth inhibition effect is equal to or greater than 90%, or complete withering is achieved)
CCS(=O)(=O)c1cccc(F)c1CS(=O)(=O)c1ncc(Cl)s1 [Compound 1C-174] |  |  |  | 5 (Growth inhibition effect is equal to or greater than 90%, or complete withering is achieved) | 5 (Growth inhibition effect is equal to or greater than 90%, or complete withering is achieved) | 4 (Growth inhibition effect is equal to or greater than 70%, and less than 90%)
CC(c1c(F)cccc1OC(F)F)S(=O)(=O)c1ncc(Cl)s1 (racemic) [Compound 1C-140] |  |  |  | 5 (Growth inhibition effect is equal to or greater than 90%, or complete withering is achieved) | 5 (Growth inhibition effect is equal to or greater than 90%, or complete withering is achieved) | 5 (Growth inhibition effect is equal to or greater than 90%, or complete withering is achieved)
O=S(=O)(Cc1c(F)cccc1OS(=O)(=O)C(F)(F)F)c1ncc(Cl)s1 [Compound 1C-185] |  |  |  | 5 (Growth inhibition effect is equal to or greater than 90%, or complete withering is achieved) | 5 (Growth inhibition effect is equal to or greater than 90%, or complete withering is achieved) | 5 (Growth inhibition effect is equal to or greater than 90%, or complete withering is achieved)
O=S(=O)(Cc1c(F)cc(OC(F)F)cc1F)c1ncc(Cl)s1 [Compound 1C-176] |  |  |  | 5 (Growth inhibition effect is equal to or greater than 90%, or complete withering is achieved) | 5 (Growth inhibition effect is equal to or greater than 90%, or complete withering is achieved) | 5 (Growth inhibition effect is equal to or greater than 90%, or complete withering is achieved)
